Source: US11279707B2, “NEK inhibitors and methods of use” (DANA-FARBER CANCER INSTITUTE, INC., priority 2017, dated 2022)

Legend:
Type in all cases: biochemical
DMPK = target: T1, DMPK (Homo sapiens, UniProt Q09013); experiment: kinase inhibition, DMPK
T1 sequence (Q09013 1-629): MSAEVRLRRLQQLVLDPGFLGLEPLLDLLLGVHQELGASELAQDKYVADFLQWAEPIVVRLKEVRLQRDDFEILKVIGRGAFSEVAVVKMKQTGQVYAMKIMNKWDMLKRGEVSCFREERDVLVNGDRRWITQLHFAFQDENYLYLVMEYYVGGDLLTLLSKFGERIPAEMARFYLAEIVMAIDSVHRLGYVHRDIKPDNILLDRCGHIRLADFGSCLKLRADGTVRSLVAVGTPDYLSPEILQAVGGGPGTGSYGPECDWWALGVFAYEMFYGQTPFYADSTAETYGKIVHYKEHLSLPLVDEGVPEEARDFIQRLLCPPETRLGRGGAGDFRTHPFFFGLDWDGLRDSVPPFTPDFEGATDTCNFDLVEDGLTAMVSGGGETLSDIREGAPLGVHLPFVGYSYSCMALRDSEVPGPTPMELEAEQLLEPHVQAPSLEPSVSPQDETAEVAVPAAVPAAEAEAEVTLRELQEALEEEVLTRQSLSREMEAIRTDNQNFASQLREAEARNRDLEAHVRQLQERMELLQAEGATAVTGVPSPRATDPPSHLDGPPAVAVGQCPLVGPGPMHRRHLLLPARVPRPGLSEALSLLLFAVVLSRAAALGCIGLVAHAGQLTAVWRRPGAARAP

NEK9 = target: T2, NEK9 (Homo sapiens, UniProt Q8TD19); experiment: kinase inhibition, NEK9
T2 sequence (Q8TD19 1-979): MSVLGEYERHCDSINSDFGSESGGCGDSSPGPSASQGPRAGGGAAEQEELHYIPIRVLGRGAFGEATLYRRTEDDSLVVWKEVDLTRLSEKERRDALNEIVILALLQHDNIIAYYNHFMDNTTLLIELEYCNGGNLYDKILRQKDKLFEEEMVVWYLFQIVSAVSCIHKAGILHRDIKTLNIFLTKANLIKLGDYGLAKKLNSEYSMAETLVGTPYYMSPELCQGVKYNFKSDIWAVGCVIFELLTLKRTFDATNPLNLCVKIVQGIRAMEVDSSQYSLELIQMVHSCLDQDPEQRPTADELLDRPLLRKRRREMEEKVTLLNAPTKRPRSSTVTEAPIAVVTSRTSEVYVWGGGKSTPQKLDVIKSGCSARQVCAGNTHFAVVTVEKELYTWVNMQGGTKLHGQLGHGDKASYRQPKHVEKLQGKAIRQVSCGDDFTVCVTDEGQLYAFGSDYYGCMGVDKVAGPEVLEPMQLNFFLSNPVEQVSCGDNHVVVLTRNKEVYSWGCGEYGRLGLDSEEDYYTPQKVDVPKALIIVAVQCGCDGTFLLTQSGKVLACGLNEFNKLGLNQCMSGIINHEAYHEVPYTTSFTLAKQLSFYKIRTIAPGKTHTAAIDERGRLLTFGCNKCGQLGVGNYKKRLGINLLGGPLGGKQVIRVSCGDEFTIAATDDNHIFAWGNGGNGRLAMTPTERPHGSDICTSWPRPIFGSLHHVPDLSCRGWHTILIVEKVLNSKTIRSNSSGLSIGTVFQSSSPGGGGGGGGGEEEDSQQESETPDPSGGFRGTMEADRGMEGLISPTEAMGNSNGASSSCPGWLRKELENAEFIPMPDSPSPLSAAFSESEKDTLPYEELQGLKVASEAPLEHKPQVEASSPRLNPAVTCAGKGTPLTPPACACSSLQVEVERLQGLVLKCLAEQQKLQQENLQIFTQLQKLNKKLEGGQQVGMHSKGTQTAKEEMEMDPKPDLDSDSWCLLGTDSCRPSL

NEK2 = target: T3, NEK2 (Homo sapiens, UniProt P51955); experiment: kinase inhibition, NEK2
T3 sequence (P51955 1-445): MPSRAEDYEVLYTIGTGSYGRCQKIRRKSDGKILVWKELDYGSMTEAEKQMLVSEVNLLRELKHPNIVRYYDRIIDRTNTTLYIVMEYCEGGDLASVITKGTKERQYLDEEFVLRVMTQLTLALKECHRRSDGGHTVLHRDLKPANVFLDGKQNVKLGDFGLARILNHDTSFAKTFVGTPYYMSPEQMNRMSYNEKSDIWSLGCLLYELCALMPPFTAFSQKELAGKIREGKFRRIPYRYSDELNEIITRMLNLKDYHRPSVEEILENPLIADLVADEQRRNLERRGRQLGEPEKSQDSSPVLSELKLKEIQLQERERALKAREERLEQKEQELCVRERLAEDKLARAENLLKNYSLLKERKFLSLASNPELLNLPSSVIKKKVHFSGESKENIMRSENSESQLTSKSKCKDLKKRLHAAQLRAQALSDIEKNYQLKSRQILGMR

NEK7 = NEK7 (Homo sapiens, UniProt Q8TDX7); experiment: kinase inhibition, NEK7
NEK7, sequence (Q8TDX7 whole entry, species assumed): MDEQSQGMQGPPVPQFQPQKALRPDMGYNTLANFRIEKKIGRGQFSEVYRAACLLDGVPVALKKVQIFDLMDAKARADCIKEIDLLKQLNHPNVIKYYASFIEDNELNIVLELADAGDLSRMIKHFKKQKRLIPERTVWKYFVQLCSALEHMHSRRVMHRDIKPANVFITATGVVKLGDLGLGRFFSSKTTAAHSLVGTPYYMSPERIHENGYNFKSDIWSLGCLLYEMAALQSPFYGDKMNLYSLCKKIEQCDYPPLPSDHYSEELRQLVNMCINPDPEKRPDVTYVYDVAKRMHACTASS

GSK3B = GSK3B (Homo sapiens, UniProt P49841); experiment: kinase inhibition, GSK3B
GSK3B, sequence (P49841 whole entry, species assumed): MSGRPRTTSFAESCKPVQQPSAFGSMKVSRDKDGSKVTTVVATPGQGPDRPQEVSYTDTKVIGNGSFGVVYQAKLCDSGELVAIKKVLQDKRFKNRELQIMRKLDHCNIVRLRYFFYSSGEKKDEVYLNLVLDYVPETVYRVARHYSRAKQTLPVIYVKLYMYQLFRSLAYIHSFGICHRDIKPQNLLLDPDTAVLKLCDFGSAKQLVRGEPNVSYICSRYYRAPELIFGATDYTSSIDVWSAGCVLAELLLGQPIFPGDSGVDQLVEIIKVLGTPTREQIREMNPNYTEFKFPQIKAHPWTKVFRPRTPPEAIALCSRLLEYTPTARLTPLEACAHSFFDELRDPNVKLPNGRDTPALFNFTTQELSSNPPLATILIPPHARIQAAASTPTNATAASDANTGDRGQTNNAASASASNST

SLK = SLK (Homo sapiens, UniProt Q9H2G2); experiment: kinase inhibition, SLK
SLK, sequence (Q9H2G2 whole entry): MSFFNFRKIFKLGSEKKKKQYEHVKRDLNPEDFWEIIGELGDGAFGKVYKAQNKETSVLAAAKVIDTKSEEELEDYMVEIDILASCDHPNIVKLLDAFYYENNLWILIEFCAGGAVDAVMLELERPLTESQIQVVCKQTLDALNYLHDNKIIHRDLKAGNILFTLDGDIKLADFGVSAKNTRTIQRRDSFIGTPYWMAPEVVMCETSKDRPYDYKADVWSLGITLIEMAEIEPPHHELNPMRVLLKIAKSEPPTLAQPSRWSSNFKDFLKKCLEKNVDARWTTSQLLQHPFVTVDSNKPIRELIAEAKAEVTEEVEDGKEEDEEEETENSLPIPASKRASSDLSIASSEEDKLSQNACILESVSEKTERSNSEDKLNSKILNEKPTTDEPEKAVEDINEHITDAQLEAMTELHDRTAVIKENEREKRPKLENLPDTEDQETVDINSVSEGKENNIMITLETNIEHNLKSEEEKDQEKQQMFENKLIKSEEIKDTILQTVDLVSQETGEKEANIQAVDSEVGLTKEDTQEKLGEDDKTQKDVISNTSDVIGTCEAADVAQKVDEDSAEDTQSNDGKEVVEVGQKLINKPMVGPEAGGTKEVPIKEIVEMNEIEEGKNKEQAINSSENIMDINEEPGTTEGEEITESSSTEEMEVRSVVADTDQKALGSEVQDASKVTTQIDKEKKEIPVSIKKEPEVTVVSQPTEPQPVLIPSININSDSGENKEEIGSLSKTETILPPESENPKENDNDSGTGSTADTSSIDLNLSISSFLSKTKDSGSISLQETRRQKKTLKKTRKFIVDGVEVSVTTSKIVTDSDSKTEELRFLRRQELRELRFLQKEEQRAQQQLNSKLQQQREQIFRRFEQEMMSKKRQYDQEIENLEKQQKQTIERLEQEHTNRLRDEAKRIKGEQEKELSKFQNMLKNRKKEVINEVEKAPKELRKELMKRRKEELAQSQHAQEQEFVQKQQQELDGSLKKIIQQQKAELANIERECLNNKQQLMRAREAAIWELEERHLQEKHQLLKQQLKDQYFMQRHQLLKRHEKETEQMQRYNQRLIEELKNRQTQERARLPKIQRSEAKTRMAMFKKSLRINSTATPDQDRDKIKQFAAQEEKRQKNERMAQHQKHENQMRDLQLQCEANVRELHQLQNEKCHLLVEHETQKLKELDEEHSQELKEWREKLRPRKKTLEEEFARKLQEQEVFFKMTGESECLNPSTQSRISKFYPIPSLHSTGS

CLK = experiment: kinase inhibition, CLK

Compound | IC50 (DMPK) [nM] | IC50 (NEK9) [nM] | IC50 (NEK2) [nM] | IC50 (NEK7) [nM] | IC50 (GSK3B) [µM] | IC50 (SLK) [nM] | IC50 (CLK) [nM]
COc1cc(C2CCN(C)CC2)ccc1Nc1ncc2c(n1)n1c(cc3ccccc31)c(=O)n2C [Compound I-6] | 250 to 1000 | 50 to 250 | ≤ 50 | 50 to 250 | ≥ 5 | 1000 to 5000 | 50 to 250
CN1CCN(c2ccc(Nc3ncc4c(n3)n3c(cc5ccccc53)c(=O)n4C)cc2C(F)(F)F)CC1 [Compound I-5] | ≥ 5000 | 50 to 250 | 50 to 250 | 1000 to 5000 | ≥ 5 | 250 to 1000 | 1000 to 5000
COc1cc(C(=O)N2CCC(N3CCN(C)CC3)CC2)ccc1Nc1ncc2c(n1)n1c(cc3ccccc31)c(=O)n2C [Compound I-4] | 250 to 1000 | 250 to 1000 | 50 to 250 | 1000 to 5000 | ≥ 5 | 1000 to 5000 | 50 to 250
COc1cc(N2CCN(C)CC2)ccc1Nc1ncc2c(n1)n1c(cc3ccccc31)c(=O)n2C [Compound I-3] | ≥ 5000 | 50 to 250 | 50 to 250 | 50 to 250 | 1 to 5 | 1000 to 5000 | 1000 to 5000
CN1CCN(c2ccc(Nc3ncc4c(n3)n3c(cc5ccccc53)c(=O)n4C)cc2)CC1 [Compound I-1] | 50 to 250 | ≤ 50 | ≤ 50 | 250 to 1000 | 0.25 to 1 | 50 to 250 | 50 to 250
COc1cc(N2CCC(O)CC2)ccc1Nc1ncc2c(n1)n1c(cc3ccccc31)c(=O)n2C [Compound I-2] | ≥ 5000 | 50 to 250 | 50 to 250 | 50 to 250 | 1 to 5 | 1000 to 5000 | 250 to 1000
